In patent US7026281B1, “Antagonistic analogs of GH-RH inhibiting IGF-I and -II” (The Administrators of the Tulane Educational Fund, priority 1998, dated 2006):
Marks after values point to notes of the source that are not given here. Square brackets hold non-standard residues; d marks the D form. Peptide text beside a SMILES is read from it. * marks the point of attachment. Phe(4-Cl) = N[C@@H](Cc1ccc(Cl)cc1)C(=O)O; hArg = N=C(N)NCCCC[C@H](N)C(=O)O; Nle = CCCC[C@H](N)C(=O)O; Abu = CC[C@H](N)C(=O)O; PhAc = O=C(Cc1ccccc1)*

Columns and labels:
[1] = tested on: U87MG human glioblastoma xenografts; test: U87MG human glioblastoma xenografts in nude mice; type: in vivo; settings: 20 μg daily s.c., 28 days
Description: Mice were implanted s.c. with U87MG glioblastomas and when tumors reached a volume of approx. 70 mm^3 the mice were randomly divided into 2 experimental groups. One group was treated with Peptide 1 in single daily s.c. injections of 20 μg for 28 days, while the other group served as control.

[2] = tested on: HT-29 human colon cancers; test: HT-29 human colon cancer xenografts in nude mice; type: in vivo; settings: 20 μg daily sc., 6 weeks
Description: HT-29 human colon cancers were transplanted sc. into male nude mice. 19 days after transplantation, the mice were divided into groups of 10 animals each, and the treatment was started. The mice received single daily injections of various GH-RH antagonists sc. at 20 μg dose per day for 6 weeks. Tumors were measured regularly, and tumor volume was calculated. The mice were sacrificed at the end of experiment and tumor weights were measured.

[3] = tested on: GH release stimulated by hGH-RH(1–29)NH2; test: In vivo inhibition of serum GH response in rats; parameters: species or system rat; settings: for Inhibition of the GH release stimulated by hGH-RH(1–29)NH2 (in words): 80 μg/kg i.v., rats
How it was run: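 Male Sprague-Dawley rats (200–250 g) under Nembutal received antagonist at 80 μg/kg i.v., then GH-RH(1–29)NH2 at 3 μg/kg after 5, 15, 30 or 60 min; controls received vehicle (5.5% mannitol). GH was measured by RIA before antagonist and 5 min after GH-RH, and inhibition was calculated as […].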

[4] = tested on: MDA-MB-468 human breast cancer xenografts; test: MDA-MB-468 human breast cancer xenografts in nude mice; type: in vivo; settings: 20 μg daily s.c., 5 weeks
Description: Nude mice bearing MDA-MB-468 hormone-independent human breast cancer xenografts were divided into groups of 10 animals each. The treated groups received single daily s.c. injections of 20 μg of GH-RH antagonists. One group was treated with Peptide 1, a second group was treated with MZ-5-156 for comparison. The control group was injected with the vehicle solvent. The treatment was continued for 5 weeks. Tumors were measured once a week and tumor volume was calculated. The mice were sacrificed at the end of experiment and tumor weights were measured.

[5] = tested on: PC-3 human prostate cancer xenografts; test: PC-3 human prostate cancer xenografts in nude mice; type: in vivo; settings: 20 μg daily s.c., 21 days
Description: Male nude mice were implanted s.c. with 3 mm^3 pieces of PC-3 human hormone-independent prostate cancer tissue into both flanks. When tumors reached a volume of approx. 40–50 mm^3 the mice were divided into 3 experimental groups. The first and second groups were treated with peptides Peptide 3 and MZ-5-156, respectively, in single daily s.c. injections of 20 μg for 21 days, while the third group served as control. Tumor volumes were measured at weekly intervals, tumor weights were measured at the end of experiment.

[6] = antagonist 80 μg/kg i.v. 5 min before GH-RH
[7] = antagonist 80 μg/kg i.v. 15 min before GH-RH
[8] = antagonist 80 μg/kg i.v. 15 min before GH-RH 3 μg/kg
[9] = antagonist 80 μg/kg i.v. 30 min before GH-RH
[10] = antagonist 80 μg/kg i.v. 30 min before GH-RH 3 μg/kg
[11] = antagonist 80 μg/kg i.v. 60 min before GH-RH
[12] = antagonist 80 μg/kg i.v. 60 min before GH-RH 3 μg/kg
[13] = rGH=GHblood1/GHblood0, antagonist 80 μg/kg i.v. 5 min before GH-RH 3 μg/kg

Compound	Inhibition of the GH release stimulated by hGH-RH(1–29)NH2 (in words) [3]	Relative inhibition % of GH response [3, 6] [%]	Relative inhibition % of GH response [3, 7] [%]	GH response mean ± S.E.M. [3, 8]	Relative inhibition % of GH response [3, 9] [%]	GH response mean ± S.E.M. [3, 10]	Relative inhibition % of GH response [3, 11] [%]	GH response mean ± S.E.M. [3, 12]	GH response mean ± S.E.M. [3, 13]	further results
CCCC[C@H](NC(=O)[C@@H](NC(=O)[C@H](CC(=O)O)NC(=O)[C@H](CCC(N)=O)NC(=O)[C@H](CC(C)C)NC(=O)[C@H](CC(C)C)NC(=O)[C@H](CCCCN)NC(=O)[C@H](CCCNC(=N)N)NC(=O)[C@H](C)NC(=O)[C@H](CO)NC(=O)[C@H](CC(C)C)NC(=O)[C@H](CCC(N)=O)NC(=O)[C@H](CC)NC(=O)[C@H](CC(C)C)NC(=O)[C@@H](NC(=O)[C@H](CCCCN)NC(=O)[C@H](CCCNC(=N)N)NC(=O)[C@H](Cc1ccc(O)cc1)NC(=O)[C@H](CCCNC(=N)N)NC(=O)[C@H](CC(N)=O)NC(=O)[C@@H](NC(=O)[C@H](Cc1ccc(Cl)cc1)NC(=O)[C@@H](NC(=O)[C@H](C)NC(=O)[C@H](CC(=O)O)NC(=O)[C@@H](CCCNC(=N)N)NC(=O)[C@H](Cc1ccc(O)cc1)NC(=O)Cc1ccccc1)[C@@H](C)CC)[C@@H](C)O)C(C)C)[C@@H](C)CC)C(=O)N[C@H](CCCNC(=N)N)C(=O)N[C@@H](CCCCNC(=N)N)C(N)=O [Peptide 1, [PhAc^0, D-Arg^2, Phe(pCl)^6, Arg^9, Abu^15, Nle^27, D-Arg^28, Har^29]hGH-RH(1–29)NH2] (PhAc-Y[dR]DAI[Phe(4-Cl)]TNRYRKVL[Abu]QLSARKLLQDI[Nle][dR][hArg]-NH2)	strong and long-lasting inhibition	95	68	1.87 ± 0.13	64	1.97 ± 0.16	−8	3.89 ± 0.65	1.13 ± 0.13	Final tumor volume (mm^3) [1]: 817 ± 323** mm^3; Tumor weight [1]: 1.4 ± 0.7 g; Inhibitory effect on HT-29 human colon cancers (in words) [2]: equally strong inhibitory effect; Final tumor volume (mm^3) ([2]; nude mice): 890 ± 322* mm^3; Tumor weight ([2]; nude mice): 1354 ± 480 mg; Final tumor volume (mm^3) ([4]; nude mice): 82.4 ± 29.1** mm^3; Tumor weight ([4]; nude mice): 64.0 ± 28.7 mg; Number of regressed tumors ([4]; groups of 10): 4
CCCC[C@H](NC(=O)[C@@H](NC(=O)[C@H](CC(=O)O)NC(=O)[C@H](CCC(N)=O)NC(=O)[C@H](CC(C)C)NC(=O)[C@H](CC(C)C)NC(=O)[C@H](CCCCN)NC(=O)[C@H](CCCNC(=N)N)NC(=O)[C@H](C)NC(=O)[C@H](CO)NC(=O)[C@H](CC(C)C)NC(=O)[C@H](CCC(N)=O)NC(=O)[C@H](CC)NC(=O)[C@H](CC(C)C)NC(=O)[C@@H](NC(=O)[C@H](CCCCN)NC(=O)[C@H](CCCNC(=N)N)NC(=O)[C@H](Cc1ccc(OC)cc1)NC(=O)[C@H](CCCCNC(=N)N)NC(=O)[C@H](CC(N)=O)NC(=O)[C@@H](NC(=O)[C@H](Cc1ccc(Cl)cc1)NC(=O)[C@@H](NC(=O)[C@H](C)NC(=O)[C@H](CC(=O)O)NC(=O)[C@@H](CCCNC(=N)N)NC(=O)[C@H](Cc1ccc(O)cc1)NC(=O)Cc1ccccc1)[C@@H](C)CC)[C@@H](C)O)C(C)C)[C@@H](C)CC)C(=O)N[C@H](CCCNC(=N)N)C(=O)N[C@@H](CCCCNC(=N)N)C(N)=O [Peptide 3, [PhAc^0, D-Arg^2, Phe(pCl)^6, Har^9, Tyr(Me)^10, Abu^15, Nle^27, D-Arg^28, Har^29]hGH-RH(1–29)NH2] (PhAc-Y[dR]DAI[Phe(4-Cl)]TN[hArg]Y(Me)RKVL[Abu]QLSARKLLQDI[Nle][dR][hArg]-NH2)	strong and long-lasting inhibition	68	61	3.63 ± 0.80	41	4.89 ± 0.95	34	5.36 ± 0.63	3.01 ± 0.41	Inhibition in tumor volume [5]: 65%; Inhibition in tumor weight [5]: 62%; Final tumor volume (mm^3) ([5]; nude mice): 107.9 ± 12.5* mm^3; Tumor weight ([5]; nude mice): 73.7 ± 11.9 mg
